For 20 compounds, EC50 results are on record in patent US9266835B2, “Quinoline derivatives useful as CB-1 inverse agonists” (JANSSEN PHARMACEUTICA NV, priority 2014, dated 2016).

For experiment [1], the target named is Human CB1R (Cannabinoid receptor 1) (Homo sapiens (Human), UniProt P21554). The experiment in a line: CB-1 in vitro cAMP assay (HTRF), inverse agonism. Format: cell-based. The following applies: mean where tested more than once. An excerpt: (§1) CB1 and CB2 receptors are Gi-coupled GPCR. Activation of CB1 and CB2 receptors results in a decrease in cAMP production. An inverse agonist of the CB1 or CB2 receptor results in the opposite effect, an increase of cAMP production. The principle of this assay is based on HTRF® technology (Homogeneous Time-Resolved Fluorescence). The method is a competitive immunoassay between native cAMP produced by cells and the cAMP labeled with the fluorophore d2. The tracer binding is quantified by a Mab anti-cAMP labeled with Eu3+TBP-NHS Cryptate (supplied as part of the assay kit). The specific signal (i.e. energy transfer) is inversely proportional to the concentration of cAMP in the standard or sample.
(§2) Human CB1R (Cannabinoid receptor 1) was stably transfected in HEK-293 cells (DiscoveRx, cat: 93-0200C1). Human CB2R (Cannabinoid receptor 2) was stably transfected in HEK-293 cells (DiscoveRx, cat: 93-0201C1). Cell cultures were maintained in media: DMEM (Invitrogen Cat#12430-054) supplemented with 10% HI FBS (Invitrogen Cat#16140-071), 1% L-glutamine (Invitrogen Cat#25030-081), 0.2 mg/ml Hygromycin B (Invitrogen Cat#10687-010), 600 μg/mL G418 (Invitrogen Cat#10131-035), and 1X Penn/Strep (Invitrogen 15140-122). After cell expansion, aliquots were cryo-stored in media containing 5% DMSO (Pierce Cat#20684).
(§3) One day prior to experiments media was warmed to 37° C. and the cryo-stored cells were thawed in a 37° C. water bath. The cells were then added to media (10× volume) and the mixture was centrifuged at 1000 RPM for 5 min. The supernate was removed and the cells were re-suspended in media. A sample of the cell suspension was evaluated on a Cedex XS automated cell counter (Innovatis Systems) to determine viable cells/ml. Additional media was added to the cells to achieve a final cell density of 4E5 cells/mL. The cells were then plated into 384 well PDL white solid bottom plates (Greiner, Cat#781945) at 20 μL per well using a Multidrop (Thermo Scientific). Cells were removed from Row P (location of cAMP standards). Two columns of cells were plated into a clear bottom 384 well PDL coated plate (Greiner, Cat#781944) to view confluence the day of the assay. The cell plates were lidded and stored for 15 minutes in a hood, then transferred to an incubator (37° C., 5% CO2, 95% humidity) overnight.
(§4) DMSO was added to all wells of 384 well V bottom polystyrene plate (Greiner, Cat#781280) except to columns 1 and 13, rows 0 and P and wells M13-M23 and N13-N23. Test compounds (60 μL, 10 mM) were added to Column 1 and 13 (A1 through N1 and A13 through L13). Test compounds were serially diluted 1/3 by transferring and mixing 20 μl sample with 40 μL DMSO.
(§5) DMSO (40 μL) was added to wells of 384 well V bottom polystyrene plate: O2 through O11, M14 through M23, N14 through N23, and O14 through O23. AM630 (also known as [6-iodo-2-methyl-1-[2-(4-morpholinyl)ethyl]-1H-indol-3-yl](4-methoxyphenyl)-methanone, Cayman Chemical, Cat#10006974) (60 μL, 10 mM) was added to 01; and 1-(2,4-dichlorophenyl)-7-[(4-fluorophenyl)methylene]-4,5,6,7-tetrahydro-N-1-piperidinyl-1H-indazole-3-carboxamide (60 μL, 10 mM) was added to N13. The control was serially diluted 1/3 by transferring and mixing 20 μl sample with 40 μL DMSO. This process resulted 11 doses per control, 10 mM to […].
(§6) Cells plated the day prior to the assay in clear bottom plates were viewed on an inverse microscope to ensure confluency in the range of 60-75%. […]
A general note: Cyclic AMP is a second messenger, typically raised through Gs and lowered through Gi signalling.

In experiment [2] the target is Human CB2R (Cannabinoid receptor 2) (Homo sapiens (Human), UniProt P34972). Put plainly: CB-2 in vitro cAMP assay (HTRF), inverse agonism. Format: cell-based. Particulars: mean where tested more than once.
Excerpt: as §1, §2, §3, §4, §5, §6

Chain of Human CB2R (Cannabinoid receptor 2) (P34972 whole entry): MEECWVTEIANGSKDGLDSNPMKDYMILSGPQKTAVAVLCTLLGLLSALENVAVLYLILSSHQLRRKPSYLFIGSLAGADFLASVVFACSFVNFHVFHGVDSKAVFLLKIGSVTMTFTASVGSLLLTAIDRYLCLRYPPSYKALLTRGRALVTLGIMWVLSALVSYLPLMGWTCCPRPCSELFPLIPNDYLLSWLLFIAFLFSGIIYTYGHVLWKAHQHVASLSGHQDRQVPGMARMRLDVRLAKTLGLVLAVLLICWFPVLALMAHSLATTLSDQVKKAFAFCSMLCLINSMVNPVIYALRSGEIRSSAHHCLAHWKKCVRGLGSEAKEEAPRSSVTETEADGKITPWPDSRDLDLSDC
Chain of Human CB1R (Cannabinoid receptor 1) (P21554 whole entry): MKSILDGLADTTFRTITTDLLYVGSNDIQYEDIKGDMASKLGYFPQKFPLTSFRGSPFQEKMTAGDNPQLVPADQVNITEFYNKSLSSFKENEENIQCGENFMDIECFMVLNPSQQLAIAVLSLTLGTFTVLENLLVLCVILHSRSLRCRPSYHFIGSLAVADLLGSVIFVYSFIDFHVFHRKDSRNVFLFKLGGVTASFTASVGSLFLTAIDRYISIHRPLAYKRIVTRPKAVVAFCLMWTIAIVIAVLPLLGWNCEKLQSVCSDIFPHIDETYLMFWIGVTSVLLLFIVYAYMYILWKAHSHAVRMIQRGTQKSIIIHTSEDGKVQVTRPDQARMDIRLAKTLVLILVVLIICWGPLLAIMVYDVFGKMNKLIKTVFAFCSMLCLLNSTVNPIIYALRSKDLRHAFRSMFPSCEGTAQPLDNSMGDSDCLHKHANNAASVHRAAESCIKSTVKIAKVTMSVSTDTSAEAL

What is called EC50 is the concentration at which the effect is half-maximal. For `O=c1cc(NC2CCN(S(=O)(=O)C(F)(F)F)CC2)c2cc(C(c3ccc(Cl)cc3)c3nc4ccccc4s3)ccc2[nH]1` (stereo not shown) [Compound 65, 6-[1,3-Benzothiazol-2-yl(4-chlorophenyl)methyl]-4-({1-[(trifluoromethyl)sulfonyl]-piperidin-4-yl}amino)quinolin-2(1H)-one], the EC50 in experiment [1] worked out at 64 nM; in experiment [2], 4300 nM.
Turning to `O=c1cc(NC2CCN(S(=O)(=O)C3CC3)CC2)c2cc(C(c3ccc(Cl)cc3)c3ccc(Cl)cc3)ccc2[nH]1` [Compound 67, 6-[Bis(4-chlorophenyl)methyl]-4-{[1-(cyclopropylsulfonyl)piperidin-4-yl]amino}quinolin-2(1H)-one], the concentration giving a half-maximal response (EC50) was 15 nM in experiment [1] and greater than 10000 nM in experiment [2].
For `O=c1cc(NC2CCN(c3ccccn3)CC2)c2cc(C(c3ccc(Cl)cc3)c3ccc(Cl)cc3)ccc2[nH]1` [Compound 68, 6-[Bis(4-chlorophenyl)methyl]-4-[(1-pyridin-2-ylpiperidin-4-yl)amino]quinolin-2(1H)-one], the EC50 in experiment [1] was 6 nM; in experiment [2] it was greater than 10000 nM.
The corresponding values for `O=C(CC(F)(F)F)N1CCC(Nc2cc(=O)[nH]c3ccc(C(c4ccc(Cl)cc4)c4ccc(Cl)cc4)cc23)CC1` [Compound 69, 6-[Bis(4-chlorophenyl)methyl]-4-{[1-(3,3,3-trifluoropropanoyl)piperidin-4-yl]amino}quinolin-2(1H)-one] are 10 nM and 4200 nM.
For `O=c1cc(NC2CCN(S(=O)(=O)C(F)(F)F)CC2)c2cc(C(O)(c3ccc(Cl)cc3)c3ccc(Cl)cc3)ccc2[nH]1` [Compound 73, 6-[Bis(4-chlorophenyl)(hydroxy)methyl]-4-({1-[(trifluoromethyl)sulfonyl]-piperidin-4-yl}amino)quinolin-(1H)-one] the same measures were 52 nM and 5400 nM.
For `CC(Nc1cc(=O)[nH]c2ccc(C(c3ccc(Cl)cc3)c3ccc(Cl)cc3)cc12)c1cccc(C(F)(F)F)c1` (stereo not shown) [Compound 74, 6-[Bis(4-chlorophenyl)methyl]-4-({1-[3-(trifluoromethyl)phenyl]ethyl}amino)quinolin-2(1H)-one] the same measures were 36 nM and greater than 10000 nM.
On to `O=c1cc(Nc2cccc(C(F)(F)F)c2)c2cc(C(c3ccc(Cl)cc3)c3ccc(Cl)cc3)ccc2[nH]1` [Compound 75, 6-[Bis(4-chlorophenyl)methyl]-4-{[3-(trifluoromethyl)phenyl]amino}-quinolin-2(1H)-one], for which the EC50 in experiment [1] was 25 nM; in experiment [2], greater than 10000 nM.
For `O=c1cc(NCc2ccc(C(F)(F)F)cn2)c2cc(C(c3ccc(Cl)cc3)c3ccc(Cl)cc3)ccc2[nH]1` [Compound 78, 6-[Bis(4-chlorophenyl)methyl]-4-({[5-(trifluoromethyl)pyridin-2-yl]methyl}amino)quinolin-2(1H)-one] the same measures were 168 nM and greater than 10000 nM.
On to `O=c1cc(NCc2cncc(C(F)(F)F)c2)c2cc(C(c3ccc(Cl)cc3)c3ccc(Cl)cc3)ccc2[nH]1` [Compound 79, 6-[Bis(4-chlorophenyl)methyl]-4-({[5-(trifluoromethyl)pyridin-3-yl]methyl}amino)quinolin-2(1H)-one], for which the EC50 in experiment [1] is 54 nM; in experiment [2] it was 6750 nM.
In the case of `O=c1cc(NC2CCN(S(=O)(=O)c3ccccc3)CC2)c2cc(C(c3ccc(Cl)cc3)c3ccc(Cl)cc3)ccc2[nH]1` [Compound 80, 6-[Bis(4-chlorophenyl)methyl]-4-{[1-(phenylsulfonyl)piperidin-4-yl]amino}quinolin-2(1H)-one], the EC50 in experiment [1] was 14 nM; in experiment [2], greater than 10000 nM.
As for `O=c1cc(NC2CCN(S(=O)(=O)N3CCCC3)CC2)c2cc(C(c3ccc(Cl)cc3)c3ccc(Cl)cc3)ccc2[nH]1` [Compound 81, 6-(bis(4-chlorophenyl)methyl)-4-((1-(pyrrolidin-1-ylsulfonyl)piperidin-4-yl)amino)quinolin-2(1H)-one], the figures for the EC50 in experiment [1] and in experiment [2] were 15 nM and greater than 10000 nM, respectively.
On to `O=c1cc(NC2CCN(S(=O)(=O)c3cccc(F)c3)CC2)c2cc(C(c3ccc(Cl)cc3)c3ccc(Cl)cc3)ccc2[nH]1` [Compound 82, 6-[Bis(4-chlorophenyl)methyl]-4-({1-[(3-fluorophenyl)sulfonyl]-piperidin-4-yl}amino)quinolin-2(1H)-one], for which the EC50 in experiment [1] amounted to 63 nM; in experiment [2], 3200 nM.
As for `O=c1cc(Nc2ccc(Cl)c(F)c2)c2cc(C(c3ccc(Cl)cc3)c3ccc(Cl)cc3)ccc2[nH]1` [Compound 83, 6-[Bis(4-chlorophenyl)methyl]-4-[(4-chloro-3-fluorophenyl)amino]quinolin-2(1H)-one], the EC50 in experiment [1] is 11 nM; in experiment [2], greater than 10000 nM.
`O=C(O)c1cccc(S(=O)(=O)N2CCC(Nc3cc(=O)[nH]c4ccc(C(c5ccc(Cl)cc5)c5ccc(Cl)cc5)cc34)CC2)c1` [Compound 84, 3-{[4-({6-[Bis(4-chlorophenyl)methyl]-2-oxo-1,2-dihydroquinolin-4-yl}amino)piperidin-1-yl]sulfonyl}benzoic acid]: the results for the EC50 in experiment [1] and in experiment [2] were 269 nM and 8960 nM, respectively.
`COC(=O)c1ccc(Nc2cc(=O)[nH]c3ccc(C(c4ccc(Cl)cc4)c4ccc(Cl)cc4)cc23)cc1` [Compound 85, Methyl 4-({6-[bis(4-chlorophenyl)methyl]-2-oxo-1,2-dihydroquinolin-4-yl}amino)benzoate]: the EC50 in experiment [1] is 70 nM; in experiment [2], greater than 10000 nM.
For the compound `O=C(O)c1ccc(Nc2cc(=O)[nH]c3ccc(C(c4ccc(Cl)cc4)c4ccc(Cl)cc4)cc23)cc1` [Compound 86, 4-({6-[Bis(4-chlorophenyl)methyl]-2-oxo-1,2-dihydroquinolin-4-yl}amino)benzoic acid], the EC50 in experiment [1] and in experiment [2] was greater than 10000 nM throughout.
In the case of `NC(=O)c1ccc(Nc2cc(=O)[nH]c3ccc(C(c4ccc(Cl)cc4)c4ccc(Cl)cc4)cc23)cc1` [Compound 87, 4-({6-[Bis(4-chlorophenyl)methyl]-2-oxo-1,2-dihydroquinolin-4-yl}amino)benzamide], the EC50 in experiment [1] is 3150 nM; in experiment [2], greater than 10000 nM.
For `O=c1cc(NC2CCC(C(F)(F)F)CC2)c2cc(C(c3ccc(Cl)cc3)c3ccc(Cl)cc3)ccc2[nH]1` (stereo not shown) [Compound 88, 6-[Bis(4-chlorophenyl)methyl]-4-{[4-(trifluoromethyl)cyclohexyl]-amino}quinolin-2(1H)-one] the same measures were 111 nM and 3700 nM.
Consider `Cn1c(=O)cc(NC2CCN(S(=O)(=O)C(F)(F)F)CC2)c2cc(C(c3ccc(Cl)cc3)c3nccs3)ccc21` (stereo not shown) [Compound 89, 6-[(4-chlorophenyl)(1,3-thiazol-2-yl)methyl]-1-methyl-4-[[1-(trifluoromethane)sulfonylpiperidin-4-yl]amino]-1,2-dihydroquinolin-2-one], for which the EC50 in experiment [1] is 14 nM; in experiment [2], 9900 nM.
Take `NC(=O)Cn1c(=O)cc(NC2CCN(S(=O)(=O)C(F)(F)F)CC2)c2cc(C(c3ccc(Cl)cc3)c3ccc(Cl)cc3)ccc21` [Compound 90, 2-(6-(bis(4-chlorophenyl)methyl)-2-oxo-4-((1-((trifluoromethyl)sulfonyl)piperidin-4-yl)amino)quinolin-1(2H)-yl)acetamide]: the EC50 was 967 nM in experiment [1] and greater than 10000 nM in experiment [2].
